Measurements: US20240317735A1, “HYDROISOQUINOLINE OR HYDRONAPHTHYRIDINE COMPOUNDS FOR THE TREATMENT OF AUTOIMMUNE DISEASE” (Hoffmann-La Roche Inc., priority 2020, published 2024)

Assays:
hERG channel = target: T1, hERG channel (Homo sapiens, UniProt Q12809); test: hERG channel inhibition assay (patch-clamp, CHOhERG cells); type: cell-based; conditions: for IC50 / IC20: CHOhERG cells, whole-cell patch-clamp; for IC20: human, CHO cells stably expressing hERG (CHOhERG); for hERG IC20/TLR7 IC50 / hERG IC20/TLR8 IC50 / hERG IC20/TLR9 IC50: safety ratio; for hERG IC20/TLR7 IC50: hERG IC20 over HEK/hTLR7 IC50; for hERG IC20/TLR8 IC50: hERG IC20 over HEK/hTLR8 IC50; for hERG IC20/TLR9 IC50: hERG IC20 over HEK/hTLR9 IC50
T1 construct: expressed in transfected cells; host or cells: CHO (CHOhERG)
Method: The hERG K^+ channels were cloned in humans and stably expressed in a CHO (Chinese hamster ovary) cell line. CHOhERG cells were used for patch-clamp (voltage-clamp, whole-cell) experiments. Cells were stimulated by a voltage pattern to activate hERG channels and conduct IKhERG currents (rapid delayed outward rectifier potassium current of the hERG channel). After the cells were stabilized for a few minutes, the amplitude and kinetics of IKhERG were recorded at a stimulation frequency of 0.1 Hz (6 bpm). Thereafter, the test compound was added to the preparation at increasing concentrations. For each concentration, an attempt was made to reach a steady-state effect, usually, this was achieved within 3-10 min at which time the next highest concentration was applied. The amplitude and kinetics of IKhERG are recorded in each concentration of the drug which were compared to the control values (taken as 100%). (references: Redfern W S, Carlsson L, Davis A S, Lynch W G, MacKenzie I, Palethorpe S, Siegl P K, Strang I, Sullivan A T, Wallis R, Camm A J, Hammond T G. 2003; Relationships between preclinical cardiac electrophysiology, clinical QT interval prolongation and torsade de pointes for a broad range of drugs: evidence for a provisional safety margin in drug development. Cardiovasc. Res. 58:32-45, Sanguinetti MC, Tristani-Firouzi M. 2006; hERG potassium channels and cardiac arrhythmia. Nature 440:463-469, Webster R, Leishman D, Walker D. 2002; Towards a drug concentration effect relationship for QT prolongation and torsades de pointes. Curr. Opin. Drug Discov. Devel. 5:116-26).

TLR9 = target: T2, TLR9 (Homo sapiens, UniProt Q9NR96); test: Human PBMC cell-based assay (CpG ODN 2216 stimulation); set-up: These cells express TLR7, TLR8, or TLR9, and therefore are natural responders to respective ligand stimulation; endogenous in cells; host or cells: human PBMC from healthy donor whole blood; conditions: CpG ODN 2216 at 1 μM, overnight, read-out: hPBMC/TLR9 IC50
T2 sequence (Q9NR96 26-1032): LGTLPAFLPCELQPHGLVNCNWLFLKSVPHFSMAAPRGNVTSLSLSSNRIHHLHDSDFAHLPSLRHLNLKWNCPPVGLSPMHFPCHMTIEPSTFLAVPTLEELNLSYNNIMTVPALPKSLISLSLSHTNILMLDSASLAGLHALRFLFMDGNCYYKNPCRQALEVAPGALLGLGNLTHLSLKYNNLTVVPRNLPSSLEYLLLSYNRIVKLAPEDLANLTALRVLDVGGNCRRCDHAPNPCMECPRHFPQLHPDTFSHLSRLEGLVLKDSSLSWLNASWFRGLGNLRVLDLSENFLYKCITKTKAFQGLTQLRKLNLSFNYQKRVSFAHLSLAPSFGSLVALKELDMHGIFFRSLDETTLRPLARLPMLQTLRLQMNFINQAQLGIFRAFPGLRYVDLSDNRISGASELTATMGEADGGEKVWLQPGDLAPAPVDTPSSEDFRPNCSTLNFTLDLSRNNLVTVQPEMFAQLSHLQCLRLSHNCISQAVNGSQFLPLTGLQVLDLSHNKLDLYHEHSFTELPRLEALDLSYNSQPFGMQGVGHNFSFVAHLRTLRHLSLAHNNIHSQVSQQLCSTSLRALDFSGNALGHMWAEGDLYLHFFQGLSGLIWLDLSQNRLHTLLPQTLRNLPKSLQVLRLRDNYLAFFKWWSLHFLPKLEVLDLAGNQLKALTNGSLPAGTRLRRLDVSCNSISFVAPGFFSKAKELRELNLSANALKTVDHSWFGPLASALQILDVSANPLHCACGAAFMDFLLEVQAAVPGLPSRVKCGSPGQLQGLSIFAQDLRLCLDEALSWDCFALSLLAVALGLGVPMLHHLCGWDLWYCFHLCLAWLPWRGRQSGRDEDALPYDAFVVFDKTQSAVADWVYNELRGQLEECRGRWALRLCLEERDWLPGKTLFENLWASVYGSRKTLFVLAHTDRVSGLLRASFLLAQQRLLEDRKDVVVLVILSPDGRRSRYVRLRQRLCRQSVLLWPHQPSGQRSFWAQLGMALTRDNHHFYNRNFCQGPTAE
Excerpt: Unlike the HEK reporter cell lines, human peripheral blood mononuclear cell (PBMC) represents primary human immune cells in blood mainly consisting of lymphocytes, monocytes, and dendritic cells. These cells express TLR7, TLR8, or TLR9, and therefore are natural responders to respective ligand stimulation. Upon activation of these TLRs, PBMCs secrete similar cytokines and chemokines in vitro and in vivo, and therefore the in vitro potency of a TLR7/8/9 antagonist in human PBMC is readily translatable to its pharmacodynamics response in vivo.
Human peripheral blood mononuclear cells (PBMC) were isolated from freshly-drawn lithium-heparinized (Lithium Heparin Plus blood Collection tube, BD Vacutainer®) healthy donor whole blood by density gradient (Ficoll-Paque™ PLUS, GE Healthcare life Sciences). Briefly, 50 mL of blood was diluted with 25 mL PBS (without Ca^2+, Mg^2+) in a 50 mL conical tube with porous barrier (Leucosep tube, Greiner bio-one), where 15.5 mL Ficoll-Paque was under laid after spinning. Tubes were centrifuged for 20 minutes at 800×g (1946 rpm) with the brake in the off position, and PBMC were collected from the buffy coat. Cells were then washed twice in PBS, and red blood cells were lysed by suspension in 2 mL (Red Blood Cell Lysis Buffer, Alfa Aesar) for 5-10 minutes at room temperature. After a final wash in PBS, PBMC were resuspended at a final concentration of 2×10^6 cells/mL in RPMI-1640 media with GlutaMAX™ (Gibco) supplemented with 10% Fetal Bovine Serum (Sigma) and plated at 150 μL/well (3×10^5 cells/well) in tissue culture treated round bottom 96-well plates (Corning Incorporated). Antagonist compounds (compounds of this invention) solubilized and serial diluted in 100% DMSO were added in duplicate to cells to yield a final concentration of 1% DMSO (v/v). PBMC were incubated with antagonist compounds for 30 minutes at 37° C., 5% CO2 before adding various TLR agonist reagents in 48 μL complete media per well as follows (final concentrations indicated): CpG ODN 2216 (InvivoGen) at 1 μM for TLR9, ORN 06/LyoVec (InvivoGen) at […] for TLR8 and R848 (InvivoGen) at 1p g/mL for TLR7 and TLR8. PBMC were incubated overnight at 37° C. with 5% CO2. Cell culture supernatants were collected, and levels of various human cytokines were assessed by Luminex assay (ProcartaPlex™ Multiplex Immunoassay, Invitrogen) or ELISA procedure according to the manufacturer's recommended protocol (eBioscience, ThermoFisher Scientific). Viability of the cells was also checked with Cell Viability Assay (CellTiter Glo®Luminescent Cell Viability Assay, Promega).

T1 sequence (Q12809 whole entry): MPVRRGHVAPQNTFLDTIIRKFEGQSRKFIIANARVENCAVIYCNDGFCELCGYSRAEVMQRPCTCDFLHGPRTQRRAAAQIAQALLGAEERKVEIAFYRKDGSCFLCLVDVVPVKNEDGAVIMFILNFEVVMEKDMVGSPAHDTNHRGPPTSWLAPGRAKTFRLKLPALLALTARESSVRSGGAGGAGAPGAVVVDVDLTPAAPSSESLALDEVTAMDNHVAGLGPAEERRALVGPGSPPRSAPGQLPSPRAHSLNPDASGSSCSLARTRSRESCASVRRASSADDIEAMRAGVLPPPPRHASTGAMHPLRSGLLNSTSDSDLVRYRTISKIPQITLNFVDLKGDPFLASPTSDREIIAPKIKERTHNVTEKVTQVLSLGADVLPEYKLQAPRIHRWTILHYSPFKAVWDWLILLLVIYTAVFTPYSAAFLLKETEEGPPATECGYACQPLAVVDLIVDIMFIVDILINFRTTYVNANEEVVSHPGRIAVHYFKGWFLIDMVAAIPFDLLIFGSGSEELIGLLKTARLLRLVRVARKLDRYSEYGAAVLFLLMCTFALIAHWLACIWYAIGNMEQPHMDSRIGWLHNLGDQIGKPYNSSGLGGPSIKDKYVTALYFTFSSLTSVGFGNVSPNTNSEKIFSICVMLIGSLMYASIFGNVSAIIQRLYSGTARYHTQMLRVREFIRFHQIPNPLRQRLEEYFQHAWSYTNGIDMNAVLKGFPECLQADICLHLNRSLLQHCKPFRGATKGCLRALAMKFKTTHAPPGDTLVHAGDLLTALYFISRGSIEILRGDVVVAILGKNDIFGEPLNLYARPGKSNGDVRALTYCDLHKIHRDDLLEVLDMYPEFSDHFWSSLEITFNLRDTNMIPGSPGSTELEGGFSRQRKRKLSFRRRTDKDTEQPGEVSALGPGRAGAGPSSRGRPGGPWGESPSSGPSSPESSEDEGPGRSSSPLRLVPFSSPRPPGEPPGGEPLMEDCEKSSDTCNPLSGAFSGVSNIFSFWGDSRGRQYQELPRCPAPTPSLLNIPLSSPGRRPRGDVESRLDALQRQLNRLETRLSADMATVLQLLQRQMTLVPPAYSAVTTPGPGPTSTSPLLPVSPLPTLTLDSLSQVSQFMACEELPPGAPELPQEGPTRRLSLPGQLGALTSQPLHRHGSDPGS

IC50 (TLR9) | Structure (SMILES) | IC50 (hERG channel) | IC20 (hERG channel) | hERG IC20/TLR7 IC50 (hERG channel) | hERG IC20/TLR8 IC50 (hERG channel) | hERG IC20/TLR9 IC50 (hERG channel)
0.214 µM | Cc1cc(N2Cc3ccc(OC[C@@H]4CNCCN4)cc3[C@@H](C)C2)c2cnn(C)c2n1 [Example 31, (4R)-2-(1,6-dimethylpyrazolo[3,4-b]pyridin-4-yl)-4-methyl-6-[[(2S)-piperazin-2-yl]methoxy]-3,4-dihydro-1H-isoquinoline] | > 20 µM | 8.5 µM | 354.2 | 4250.0 | 81.0
0.34 µM | CO[C@H]1CN(c2cc3c(cn2)CN(c2cc(C)nc4c2cnn4C)C[C@@H]3C)CC[C@@H]1N [Example 73, (3S,4S)-3-methoxy-1-[(5R)-7-(1,6-dimethylpyrazolo[3,4-b]pyridin-4-yl)-5-methyl-6,8-dihydro-5H-2,7-naphthyridin-3-yl]piperidin-4-amine] | > 20 µM | 6.9 µM | 1725.0 | 3450.0 | 60.0

Structure (SMILES) | IC50 (TLR9) | IC50 (hERG channel) | IC20 (hERG channel) | hERG IC20/TLR7 IC50 (hERG channel) | hERG IC20/TLR8 IC50 (hERG channel) | hERG IC20/TLR9 IC50 (hERG channel)
Cn1ncc2c(N3CCc4cc(N5CCNCC5)ccc4C3)ccnc21 [Example 3, 2-(1-methylpyrazolo[3,4-b]pyridin-4-yl)-6-piperazin-1-yl-3,4-dihydro-1H-isoquinoline] | 0.434 µM | > 20 µM | > 10 µM | >526.3 | >178.6 | >54.1
